Assay results as given in US20210323995A1, “ISOLITHOCHOLIC ACID OR ISOALLOLITHOCHOLIC ACID AND DEUTERATED DERIVATIVES THEREOF FOR PREVENTING AND TREATING CLOSTRIDIUM DIFFICILE-ASSOCIATED DISEASES” (PHENEX PHARMACEUTICALS AG, priority 2018, published 2021).
Converted amounts (≈) assume the structure as drawn.

Columns and labels:
[1] = system: C. diff. strain BI1 infection; experiment: Recurrence model hamster of C. diff. infection; assay type: in vivo, male Syrian hamster; conditions: for survivors: repeated experiment (FIG. 5), 100% of vehicle animals died within 13 days
Method: The efficacy of compounds in suppressing recurrent C. diff infection was assessed in male Syrian hamster. Hamster were made vulnerable to C. diff. infection by administration 1 day prior to C. diff, infection of a single dose of clindamycin (30 mg/kg) by oral gavage. After this antibiotic pre-treatment, mice received a challenge of approximately 1560 viable spores of strain BI1 administered by oral gavage (day 0). After that hamster received 10 mg/kg vancomycin from day 0 until day 5. Test articles (bile acid) and placebo were administered via oral gavage bid from day 6 through day 15. Efficacy of test articles was assessed by enumeration of survival of test animals over 20 days following C. diff. challenge and by comparison of mortality, disease severity scores and assessment of body weight against placebo treatment.

[2] = system: Clostridium difficile (Clostridioides difficile), Mouse Strain VPI 10463 (ATCC 43255); experiment: MIC on Clostridium difficile mouse strain VPI 10463; assay type: cell-based; conditions: ATCC43255, 48 hours, presence/absence of growth, tested 0.015-250 μM
Method: Determination of Minimal Inhibitory Concentrations (MICs) of Bile Acid Derivatives on Clostridium difficile (Clostridioides difficile), Mouse Strain VPI 10463 (ATCC 43255)
Concentrations (0.015-250 μM) of test compounds are prepared by serial two-fold dilutions in pre-reduced brain heart infusion (BHI) broth. To each well containing test article, approximately 5×10^5 CFU of bacteria are added and incubated for 48 hours in an anaerobic chamber at 37° C. Following incubation, the MIC of each test article is determined by presence/absence of bacterial growth in each well.

[3] = ALT plasma concentration of mice after 5 days administration; assay type: in vivo; conditions: 500 mg/kg for 5 days, mice (FIG. 1a, 1b); result in words
[4] = system: C. diff. strain VPI 10463 (ATCC-43255) infection; experiment: Recurrence model mouse of C. diff. infection; assay type: in vivo, C57BL/6 female mice; conditions: for Survived / Total Deaths: Day 5 to Day 11, n 10
Method: The efficacy of compounds in suppressing recurrent C. diff. infection was assessed in C57BL/6 female mice. Mice were made vulnerable to C. diff. infection by administration of a cocktail of antibiotics (1% glucose, kanamycin (0.5 mg/mL), gentamicin (44 μg/mL), colistin (1062.5 U/mL), metronidazole (269 μg/mL), ciprofloxacin (156 μg/mL), ampicillin (100 μg/mL) and vancomycin (56 μg/mL)) in drinking water for a period of 9 days. 3 days prior to C. diff. infection, mice received a single dose of clindamycin (10 mg/kg) in a volume of 0.5 mL by oral gavage. After this antibiotic pre-treatment, mice received a challenge of approximately 4.5 log 10 viable spores of strain VPI 10463 (ATCC-43255) administered by oral gavage (day 0). After that mice received 50 mg/kg vancomycin from day 0 until day 4. Test articles (bile acid) and placebo were administered via oral gavage bid from day 5 through day 11. Efficacy of test articles was assessed by enumeration of survival of test animals over 15 days following C. diff, challenge and by comparison of mortality, disease severity scores and assessment of body weight against placebo treatment.

[5] = system: Clostridium difficile (Clostridioides difficile), Human Strain R20291, Ribotype RT027; experiment: MIC on Clostridium difficile human strain R20291, ribotype RT027; assay type: cell-based; conditions: 16 h incubation, OD600
Method: Determination of Minimal Inhibitory Concentrations (MICs) of Bile Acid Derivatives on Clostridium difficile (Clostridioides difficile), Human Strain R20291, Ribotype RT027, Reference DSMZ (DSM-27147)
All bacterial culturing steps and MIC experiments were performed under anoxic conditions (95% N2, 5% H2) and 37° C. in an incubator model 2002 that was placed in a Type B vinyl anaerobic chamber, both from Coy Laboratories Products. The strains were maintained as frozen stock cultures in Brain-Heart Infusion broth supplemented with […] and 1% (w/v) L-cysteine (BHIS) containing 40% (v/v) glycerine (Carl Roth GmbH, Cat. #3783.1) at −80° C. Brain-heart infusion broth (Sigma Aldrich, Cat. #53286) with the addition of with 5 g/L yeast extract (Carl Roth GmbH, Cat. #2363.5) was prepared according to the manufacturer's instructions. After heat sterilization, 1 g L-cysteine (Sigma Aldrich, Cat. #C7352) was added that was dissolved in 10 mL of distilled water (H2Odd) and filter sterilized. Medium was placed over night into the anaerobic chamber for degassing. For the MIC-assay cryo-preserved strains were streaked out on BBL™ Columbia CNA Agar with 5% Sheep Blood (BD™, Cat. #221352) and grown for 2-3 d. These plates were kept at rt in the anaerobic chamber for up to two weeks for starting fresh liquid cultures. […]

[6] = molecular target: T1, vitamin D receptor (VDR; NR1I1) (Homo sapiens, UniProt P11473); experiment: One-hybrid reporter assay for the vitamin D receptor; assay type: cell-based; conditions: result in words
T1 construct: expressed in transfected cells; host or cells: HEK293
T1 sequence (P11473 88-427): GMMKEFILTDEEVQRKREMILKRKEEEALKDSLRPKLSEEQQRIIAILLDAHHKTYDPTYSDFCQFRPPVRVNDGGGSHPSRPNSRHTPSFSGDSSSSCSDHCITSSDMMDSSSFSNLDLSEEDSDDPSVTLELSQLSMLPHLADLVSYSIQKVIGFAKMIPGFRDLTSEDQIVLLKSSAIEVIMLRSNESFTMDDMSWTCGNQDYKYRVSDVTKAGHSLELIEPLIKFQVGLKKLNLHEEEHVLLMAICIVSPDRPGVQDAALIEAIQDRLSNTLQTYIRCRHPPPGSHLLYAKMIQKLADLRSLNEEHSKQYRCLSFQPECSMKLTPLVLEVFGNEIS
Method: The vitamin D receptor (VDR; NR1I1) reporter assay was performed by transient co-transfection of HEK293 cells with pCMV-BD (Stratagene #211342) containing the GAL4 DNA-binding domain fused with the ligand binding domain of VDR (Genbank accession no. NP_000378, aa 88-427), pFR-Luc reporter and pRL-CMV reporter (Promega #E2261) using PEI solution (Sigma Aldrich cat #40872-7) in a 96-well plate. Cells were incubated for 4-6 hours, and then cultured in MEM supplemented with 8.7% FCS, Glutamax, NEAA, sodium pyruvate and Pen/Strep in the presence of test compounds for 16-20 hours. Cells were incubated for 4 to 6 hours in 30 μL/well transfection mix in OPTIMEM and then cultured for further 16 to 20 hours after addition of 120 μL MEM supplemented with 8.7% FCS, Glutamax, NEAA, sodium pyruvate and Pen/Strep in the presence of test compounds. Medium was removed and cells were lysed with 1× Passive Lysis Buffer (Promega). Firefly luciferase buffer was then added and firefly luciferase luminescence was read on BMG LUMIstar OMEGA luminescence plate reader. One second later, renilla luciferase buffer was added and renilla luciferase luminescence was read to evaluate cell viability and to be able to normalize for well to well differences in transfection efficiency.

[7] = Study 2 (so in the source), 0.1% in chow, Day −2 to Day 10
[8] = Study 2, as gavage, Day 5 to Day 11

SMILES: C[C@H](CCC(=O)O)[C@H]1CC[C@H]2[C@@H]3CC[C@@H]4C[C@@H](O)CC[C@]4(C)[C@H]3CC[C@]12C [Example 1, Isolithocholic Acid]
- survivors ([1]; 30 mg/kg): 20%
- survivors ([1]; 100 mg/kg): 40%
- animals protected ([1]; dose-dependent manner (FIG. 5)): 20-40%
- animals in the treatment group died ([1]; first experiment (FIG. 4), vehicle group 20% died, result in words): none
- spores in caecum and colon of surviving animals ([1]; result in words): removed all spores from caecum and colon
- MIC [2]: 15.6 µM (≈ 5.87 µg/mL)
- ALT-elevation (ALT plasma concentration) [3]: less pronounced
- survival of the animals ([4]; 100 mg/kg, comparison Example 3 against Example 1 (FIG. 3)): 30%
- efficacy (surviving rate), head-to-head comparison of iso-LCA and LCA ([4]; FIG. 2, result in words): higher surviving rate
- % Death ([4]; Study 1, 0.1% in chow, Day 5 to Day 11): 0%
- Survived ([4]; Study 1, 0.1% in chow): 10
- Total Deaths ([4]; Study 1, 0.1% in chow): 0
- Body weight day 12 ([4]; Study 1, 0.1% in chow, Day −2 to Day 10): 18.4
- % mouse days with total clinical score >0 [4, 7]: 30%
- % mouse days with total clinical score >2 [4, 7]: 1%
- % Death [4, 8]: 0%
- % mouse days with total clinical score >0 [4, 8]: 56%
- % mouse days with total clinical score >2 [4, 8]: 0%
- Body weight day 12 [4, 8]: 16.9 g
- Survived ([4]; Study 2, as gavage): 10
- Total Deaths ([4]; Study 2, as gavage): 0
- animals in the treatment groups died ([4]; vehicle group 70 to 80% died, result in words): none
- MIC [5]: 16 µM (≈ 6.03 µg/mL)
- Vitamin D agonism [6]: devoid of this Vitamin D agonism
